PubChem BioAssay AID1963981 (Molecular Pharmacology Branch, DTP, NCI, 2024)

Test system: 354836-022-R-J1-PDC multicell spheroid viability
Assay: Anticancer human tumor 354836-022-R-J1-PDC patient-derived head and neck squamous cell carcinoma cell line growth inhibition [PI3K]
Settings: for viability, T/C: stronger effect = lower value
Outline: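 High-throughput combination screen: PI3K inhibitors crossed with targeted small molecules on complex spheroids of tumor cells, HUVEC and MSCs at 37 degrees C, 5% CO2. Top concentration was at or near clinical Cmax (otherwise 10 microM), with half-log decrements.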
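Note: spheroids exposed to agents for seven days before the viability read.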

CCN1CCN(Cc2ccc(Nc3ncc(F)c(-c4cc(F)c5nc(C)n(C(C)C)c5c4)n3)nc2)CC1 + Cc1nc(NC(=O)N2CCCC2C(N)=O)sc1-c1ccnc(C(C)(C)C(F)(F)F)c1
IC50 (curve of first compound, second compound 0.0316 µM): > 1000 nM | IC50 (curve of first compound, second compound 0.1 µM): > 1000 nM | IC50 (curve of first compound, second compound 0.316 µM): > 1000 nM | IC50 (curve of first compound, second compound 1 µM): 455 nM | IC50 (curve of first compound, second compound 3.16 µM): 322 nM | IC50 (curve of first compound, second compound 10 µM): < 3.16 nM | viability, T/C (second compound 0.0316 µM, first compound 0.00316 µM): 107% | viability, T/C (second compound 0.0316 µM, first compound 0.01 µM): 82.5% | viability, T/C (second compound 0.0316 µM, first compound 0.0316 µM): 97.9% | viability, T/C (second compound 0.0316 µM, first compound 0.1 µM): 90.9% | viability, T/C (second compound 0.0316 µM, first compound 0.316 µM): 99.7% | viability, T/C (second compound 0.0316 µM, first compound 1 µM): 62.8% | viability, T/C (second compound 0.1 µM, first compound 0.00316 µM): 94.4% | viability, T/C (second compound 0.1 µM, first compound 0.01 µM): 82.5% | viability, T/C (second compound 0.1 µM, first compound 0.0316 µM): 91.5% | viability, T/C (second compound 0.1 µM, first compound 0.1 µM): 77.7% | viability, T/C (second compound 0.1 µM, first compound 0.316 µM): 91.8% | viability, T/C (second compound 0.1 µM, first compound 1 µM): 69.1% | viability, T/C (second compound 0.316 µM, first compound 0.00316 µM): 87.6% | viability, T/C (second compound 0.316 µM, first compound 0.01 µM): 96.4% | viability, T/C (second compound 0.316 µM, first compound 0.0316 µM): 69.5% | viability, T/C (second compound 0.316 µM, first compound 0.1 µM): 92% | viability, T/C (second compound 0.316 µM, first compound 0.316 µM): 84.2% | viability, T/C (second compound 0.316 µM, first compound 1 µM): 51.1% | viability, T/C (second compound 1 µM, first compound 0.00316 µM): 67.9% | viability, T/C (second compound 1 µM, first compound 0.01 µM): 90.8% | viability, T/C (second compound 1 µM, first compound 0.0316 µM): 63.2% | viability, T/C (second compound 1 µM, first compound 0.1 µM): 67.8% | viability, T/C (second compound 1 µM, first compound 0.316 µM): 59.5% | viability, T/C (second compound 1 µM, first compound 1 µM): 33.3% | viability, T/C (second compound 3.16 µM, first compound 0.00316 µM): 51.9% | viability, T/C (second compound 3.16 µM, first compound 0.01 µM): 61.8% | viability, T/C (second compound 3.16 µM, first compound 0.0316 µM): 54.4% | viability, T/C (second compound 3.16 µM, first compound 0.1 µM): 59.3% | viability, T/C (second compound 3.16 µM, first compound 0.316 µM): 49.8% | viability, T/C (second compound 3.16 µM, first compound 1 µM): 18.8% | viability, T/C (second compound 10 µM, first compound 0.00316 µM): 31.8% | viability, T/C (second compound 10 µM, first compound 0.01 µM): 36.6% | viability, T/C (second compound 10 µM, first compound 0.0316 µM): 35% | viability, T/C (second compound 10 µM, first compound 0.1 µM): 28.9% | viability, T/C (second compound 10 µM, first compound 0.316 µM): 25.2% | viability, T/C (second compound 10 µM, first compound 1 µM): 9.14%

CC(Nc1ncnc2nc[nH]c12)c1cc2cccc(Cl)c2c(=O)n1-c1ccccc1 (centres undefined)
viability, T/C (compound 0.0316 µM): 101% [middle of 8 runs] | viability, T/C (compound 0.1 µM): 104% [middle of 8 runs] | viability, T/C (compound 0.316 µM): 99.3% [middle of 8 runs] | viability, T/C (compound 1 µM): 97.6% [middle of 8 runs] | viability, T/C (compound 3.16 µM): 92.8% [middle of 8 runs] | viability, T/C (compound 10 µM): 94.6% [middle of 8 runs] | IC50 (compound alone, run of 06/13/2023): > 10000 nM
